# Reference: PMC4291220 (PLoS ONE, 2015)
# Key:
# CLIC1 [1] = target: T1, CLIC1 (Homo sapiens, UniProt O00299); test: HEDS assay, GR-coupled; type: biochemical; set-up: full length, His-tag (pET28a) cut with thrombin; E. coli BL21(DE3); reduced monomer by SEC; settings: 5 uM CLIC1, 1 mM HEDS, 1 mM GSH, pH 7, 37 °C; mode and site not determined
# CLIC4 [2] = target: T2, CLIC4 (Homo sapiens, UniProt Q9Y696); test: DHAR assay, GR-coupled NADPH oxidation at A340; type: biochemical; settings: 5 uM protein, 1 mM DHA, 2 mM GSH, pH 7.5, 30 °C
# O=[Se](O)O = test: purified protein; settings: 50 uM GSH, 200 uM NADPH, 50 nM GR, pH 7.5, 20 °C, reduced monomer, selenite 0-16 uM
# CLIC1 [3] = target: T1, CLIC1; settings: 1 mM GSH, 250 uM NADPH, 50 nM GR, pH 7, 37 °C; reduced monomer; HEDS range printed as 0-6 mM, so printed unit uM is doubtful
# CLIC4 [4] = target: T2, CLIC4; test: HEDS assay, GR-coupled NADPH oxidation at A340; type: biochemical; settings: 5 uM protein, 1 mM HEDS, 1 mM GSH, pH 7, 37 °C
# CLIC1 [5] = target: CLIC1 (Homo sapiens, UniProt O00299, C59A); settings: 1 mM GSH, 250 uM NADPH, 50 nM GR, pH 7, 37 °C; HEDS range printed as 0-6 mM, so printed unit uM is doubtful
# CLIC2 = target: T3, CLIC2 (Homo sapiens, UniProt O15247); test: HEDS assay, GR-coupled NADPH oxidation at A340; type: biochemical; settings: 5 uM protein, 1 mM HEDS, 1 mM GSH, pH 7, 37 °C
# T3 construct: full length, N-terminal GST tag (pGEX-2T) cut with thrombin; E. coli BL21(DE3)
# T3 sequence (O15247 whole entry): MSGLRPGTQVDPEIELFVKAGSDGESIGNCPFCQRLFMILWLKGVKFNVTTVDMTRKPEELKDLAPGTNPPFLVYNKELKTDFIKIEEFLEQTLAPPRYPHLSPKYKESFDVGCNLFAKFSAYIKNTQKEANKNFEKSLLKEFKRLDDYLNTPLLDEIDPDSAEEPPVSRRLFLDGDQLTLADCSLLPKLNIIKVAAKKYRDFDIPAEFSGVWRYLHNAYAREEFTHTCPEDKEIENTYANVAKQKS
# T2 sequence (Q9Y696 2-253): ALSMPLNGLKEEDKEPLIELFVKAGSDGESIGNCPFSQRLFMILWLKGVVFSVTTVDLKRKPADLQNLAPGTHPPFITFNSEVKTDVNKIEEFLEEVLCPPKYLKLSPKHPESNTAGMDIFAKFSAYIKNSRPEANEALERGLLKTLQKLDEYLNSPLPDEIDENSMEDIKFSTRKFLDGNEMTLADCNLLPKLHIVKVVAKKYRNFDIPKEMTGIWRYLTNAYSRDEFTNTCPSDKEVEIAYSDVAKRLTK
molecule,measurement,setting,value
O=C(O)c1c2ccccc2cc2ccccc12 [A9C],complete inhibition at 10 uM,CLIC1 [1],both IAA-94 and A9C completely blocked the enzymatic activity of CLIC1
CC1(C2CCCC2)Cc2cc(OCC(=O)O)c(Cl)c(Cl)c2C1=O (centres unmarked) [IAA-94],complete inhibition at 10 uM,CLIC1 [1],both IAA-94 and A9C completely blocked the enzymatic activity of CLIC1
O=C1O[C@H]([C@@H](O)CO)C(=O)C1=O [dehydroascorbic acid],"DHAR assay, GR-coupled NADPH oxidation at A340",CLIC4 [2],NADPH consumption increased in the presence of CLIC1 or CLIC4
CLIC1 (Homo sapiens),Km,O=[Se](O)O,4.81 ± 3.00 µM
OCCSSCCO [2-hydroxyethyl disulfide],Km,CLIC1 [3],1.28 ± 0.65 µM
same,"HEDS assay, GR-coupled NADPH oxidation at A340",CLIC4 [4],all three proteins reduced the HEDS substrate when coupled with glutathione (GSH)
same,Km,CLIC1 [5],1.25 ± 0.65 µM
same,"HEDS assay, GR-coupled NADPH oxidation at A340",CLIC2,all three proteins reduced the HEDS substrate when coupled with glutathione (GSH)
